Drawing on patent publication US20220402916A1, “SMALL MOLECULE INHIBITORS OF KRAS G12C MUTANT” (Merck Sharp & Dohme Corp., priority 2019, published 2022), this text covers IC50 for 17 compounds.

For test [1], the target named is T1, Biotinylated KRAS G12C protein (Homo sapiens, UniProt P01116, C118S/C51S/C80L/G12C).
T1 construct: 183 amino acids; biotin on K10
In words: SOS-catalyzed nucleotide exchange assay. Format: biochemical. Particulars: apparent potency; preincubation time of 60 minutes prior to addition of SOS.

Another test deals with NCI-H358 cells. In words: Cellular phospho-ERK assay. Format: cell-based. The following applies: NCI-H358 cells, 2 hour incubation, ratio of p-Erk vs total Erk, read-out: IC50. As to the method:
NCI-H358 cells (ATCC® CRL-5807™) were cultured in T150 flask in growth medium (RPMI medium 1640-GlutaMAX™-1 (ThermoFisher Scientific 61870) containing 10% fetal bovine serum (ThermoFisher Scientific 10091148)). The cells were harvested in growth medium after TrypLE (ThermoFisher scientific 12604021) digestion and were seeded in 384-well collagen coated cell culture plate (Corning 356702) at a density of 15,000 cells/well, and incubated at 37° C., 5% CO2 overnight. The compound dose-response titrations were prepared and appropriate amounts of compounds were dispensed in 384-well intermediate plate using Echo 550 liquid handler. RPMI medium 1640-GlutaMAX™-I were added to the intermediate plate and transferred to 384-well cell culture plate, which was incubated at 37° C., 5% CO2 for 2 hours. After removal of medium from the plate, cells were lysed in lysis buffer from Alpha SureFire® Ultra™ Multiplex p-Erk and total Erk assay kit (PerkinElmer MPSU-PTERK) containing Halt™ Protease and Phosphotase inhibitor cocktail (ThermoFisher Scientific 78446) at room temperature with constant shaking at 300 rpm for 30 minutes. The cell lysates were then transferred to OptiPlate-384 plate (PerkinElmer 6005620) and the phosphorylation of Erk and total Erk levels were detected by Alpha SureFire Ultra Multiplex p-Erk kit (PerkinElmer MPSU-PTERK) following the manufacturer's protocol. Assay plates were read on an EnVision Multimode Plate Reader (PerkinElmer) and the ratio of p-Erk vs total Erk in each well was used as the final readout. Dose response curves were analyzed using a 4-parameter logistic model to calculate IC50 values using spotfire software.

Molecules are shown by their SMILES. Read-outs that look alike come from different tables or passages of the source.

T1 sequence (P01116 with tags, fused parts or gaps isoform P01116-2 G12C/C51S/C80L/C118S): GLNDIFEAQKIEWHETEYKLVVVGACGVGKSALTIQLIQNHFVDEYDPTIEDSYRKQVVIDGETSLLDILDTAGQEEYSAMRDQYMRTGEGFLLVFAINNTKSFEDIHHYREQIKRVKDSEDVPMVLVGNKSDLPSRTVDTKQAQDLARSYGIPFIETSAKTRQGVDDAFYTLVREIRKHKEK

`C=CC(=O)N1CCN(c2cc(C(=O)N[C@H](C)CN)nc3c2CCN(c2cccc4cccc(C)c24)C3)C[C@@H]1CC#N` [Compound 67, 4-((S)-4-acryloyl-3-(cyanomethyl)piperazin-1-yl)-N—((R)-1-aminopropan-2-yl)-7-(8-methylnaphthalen-1-yl)-5,6,7,8-tetrahydro-1,7-naphthyridine-2-carboxamide]: the half-inhibitory concentration (IC50) (commonly the concentration needed to halve the response being measured) came out at 5.9 nM in test [1] and 433 nM in the test on NCI-H358 cells (Homo sapiens, NCI-H358, 2 h).
The like results for `C=CC(=O)N1CCN(c2cc(C(=O)NCC3(N)CCOCC3)nc3c2CCN(c2cccc4cccc(C)c24)C3)C[C@@H]1CC#N` [Compound 90, (S)-4-(4-acryloyl-3-(cyanomethyl)piperazin-1-yl)-N-((4-aminotetrahydro-2H-pyran-4-yl)methyl)-7-(8-methylnaphthalen-1-yl)-5,6,7,8-tetrahydro-1,7-naphthyridine-2-carboxamide] were, in that order, 21 nM and 2340 nM.
On the same counts, the results for `C=CC(=O)N1CCN(c2cc(C(=O)N[C@@H]3CCC[C@H]3N(C)C)nc3c2CCN(c2cccc4cccc(C)c24)C3)C[C@@H]1CC#N` (mixture of isomers) [Compound 66, 4-((S)-4-acryloyl-3-(cyanomethyl)piperazin-1-yl)-N-((1R,2R)-2-(dimethylamino)cyclopentyl)-7-(8-methylnaphthalen-1-yl)-5,6,7,8-tetrahydro-1,7-naphthyridine-2-carboxamide, as a mixture with 4-((S)-4-acryloyl-3-(cyanomethyl)piperazin-1-yl)-N-((1S,2S)-2-(dimethylamino)cyclopentyl)-7-(8-methylnaphthalen-1-yl)-5,6,7,8-tetrahydro-1,7-naphthyridine-2-carboxamide] are 1 nM and 41 nM.
The like results for `C=CC(=O)N1CCN(c2cc(C(=O)Nc3ccccc3CN)nc3c2CCN(c2cccc4cccc(C)c24)C3)C[C@@H]1CC#N` [Compound 94, (S)-4-(4-acryloyl-3-(cyanomethyl)piperazin-1-yl)-N-(2-(aminomethyl)phenyl)-7-(8-methylnaphthalen-1-yl)-5,6,7,8-tetrahydro-1,7-naphthyridine-2-carboxamide] were, in that order, 12 nM and 6630 nM.
In the case of `C=CC(=O)N1CCN(c2cc(C(=O)NC(C)CN3CCC(F)(F)C3)nc3c2CCN(c2cccc4cccc(C)c24)C3)C[C@@H]1CC#N` (single isomer, unassigned) [Compound 72, 4-((S)-4-acryloyl-3-(cyanomethyl)piperazin-1-yl)-N—((S or R)-1-(3,3-difluoropyrrolidin-1-yl)propan-2-yl)-7-(8-methylnaphthalen-1-yl)-5,6,7,8-tetrahydro-1,7-naphthyridine-2-carboxamide], the figures for the 50% inhibitory concentration (IC50) (in test [1]; in the test on NCI-H358 cells) were 529 nM and 25400 nM, respectively.
As for `C=CC(=O)N1CCN(c2cc(C(=O)NCC3(N)CCCCCC3)nc3c2CCN(c2cccc4cccc(C)c24)C3)C[C@@H]1CC#N` [Compound 91, (S)-4-(4-acryloyl-3-(cyanomethyl)piperazin-1-yl)-N-((1-aminocycloheptyl)methyl)-7-(8-methylnaphthalen-1-yl)-5,6,7,8-tetrahydro-1,7-naphthyridine-2-carboxamide], the IC50 came out at 12 nM in test [1] and 7860 nM in the test on NCI-H358 cells (Homo sapiens, NCI-H358, 2 h).
Take `C=CC(=O)N1CCN(c2cc(C(=O)NC(CN)CN)nc3c2CCN(c2cccc4cccc(C)c24)C3)C[C@@H]1CC#N` [Compound 87, (S)-4-(4-acryloyl-3-(cyanomethyl)piperazin-1-yl)-N-(1,3-diaminopropan-2-yl)-7-(8-methylnaphthalen-1-yl)-5,6,7,8-tetrahydro-1,7-naphthyridine-2-carboxamide]: the IC50 in test [1] worked out at 15 nM; in the test with NCI-H358 cells (Homo sapiens, NCI-H358, 2 h), 26700 nM.
The like results for `C=CC(=O)N1CCN(c2cc(C(=O)Nc3ccccc3N3CCNCC3)nc3c2CCN(c2cccc4cccc(C)c24)C3)C[C@@H]1CC#N` [Compound 93, (S)-4-(4-acryloyl-3-(cyanomethyl)piperazin-1-yl)-7-(8-methylnaphthalen-1-yl)-N-(2-(piperazin-1-yl)phenyl)-5,6,7,8-tetrahydro-1,7-naphthyridine-2-carboxamide] were, in that order, 1840 nM and 24400 nM.
On the same counts, the results for `C=CC(=O)N1CCN(c2cc(C(=O)NC3(CN4CCCCC4)CC3)nc3c2CCN(c2cccc4cccc(C)c24)C3)CC1` [Compound 25, 4-(4-acryloylpiperazin-1-yl)-7-(8-methylnaphthalen-1-yl)-N-(1-(piperidin-1-ylmethyl)cyclopropyl)-5,6,7,8-tetrahydro-1,7-naphthyridine-2-carboxamide] are 74 nM and 5640 nM.
`C=CC(=O)N1CCN(c2cc(C(=O)NC[C@H]3CCCN3)nc3c2CCN(c2cccc4cccc(C)c24)C3)C[C@@H]1CC#N` [Compound 98, 4-((S)-4-acryloyl-3-(cyanomethyl)piperazin-1-yl)-7-(8-methylnaphthalen-1-yl)-N-(((R)-pyrrolidin-2-yl)methyl)-5,6,7,8-tetrahydro-1,7-naphthyridine-2-carboxamide]: the IC50 amounted to 6.2 nM in test [1] and 1040 nM in the test on NCI-H358 cells (Homo sapiens, NCI-H358, 2 h).
`C=CC(=O)N1CCN(c2cc(C(=O)NCCC3CCCCN3)nc3c2CCN(c2cccc4cccc(C)c24)C3)C[C@@H]1CC#N` (mixture of isomers) [Compound 105, 4-((S)-4-acryloyl-3-(cyanomethyl)piperazin-1-yl)-7-(8-methylnaphthalen-1-yl)-N-(2-((R)-piperidin-2-yl)ethyl)-5,6,7,8-tetrahydro-1,7-naphthyridine-2-carboxamide, as a mixture with 4-((S)-4-acryloyl-3-(cyanomethyl)piperazin-1-yl)-7-(8-methylnaphthalen-1-yl)-N-(2-((S)-piperidin-2-yl)ethyl)-5,6,7,8-tetrahydro-1,7-naphthyridine-2-carboxamide]: the IC50 in test [1] is 17 nM; in the test with NCI-H358 cells (Homo sapiens, NCI-H358, 2 h), 4890 nM.
Take `C=CC(=O)N1CCN(c2cc(C(=O)NC3(CC#N)CNC3)nc3c2CCN(c2cccc4cccc(C)c24)C3)C[C@@H]1CC#N` [Compound 100, (S)-4-(4-acryloyl-3-(cyanomethyl)piperazin-1-yl)-N-(3-(cyanomethyl)azetidin-3-yl)-7-(8-methylnaphthalen-1-yl)-5,6,7,8-tetrahydro-1,7-naphthyridine-2-carboxamide]: the IC50 is 22 nM in test [1] and 5880 nM in the test with NCI-H358 cells (Homo sapiens, NCI-H358, 2 h).
On the same counts, the results for `C=CC(=O)N1CCN(c2cc(C(=O)N[C@H]3CC[C@@H](NC)CC3)nc3c2CCN(c2cccc4cccc(C)c24)C3)C[C@@H]1CC#N` [Compound 96, 4-((S)-4-acryloyl-3-(cyanomethyl)piperazin-1-yl)-N-(cis-4-(methylamino)cyclohexyl)-7-(8-methylnaphthalen-1-yl)-5,6,7,8-tetrahydro-1,7-naphthyridine-2-carboxamide] are 56 nM and 5470 nM.
On the same counts, the results for `C=CC(=O)N1CCN(c2cc(C(=O)NC3(C)CCCNC3)nc3c2CCN(c2cccc4cccc(C)c24)C3)C[C@@H]1CC#N` (mixture of isomers) [Compound 102, 4-((S)-4-acryloyl-3-(cyanomethyl)piperazin-1-yl)-7-(8-methylnaphthalen-1-yl)-N-((R)-3-methylpiperidin-3-yl)-5,6,7,8-tetrahydro-1,7-naphthyridine-2-carboxamide, as a mixture with 4-((S)-4-acryloyl-3-(cyanomethyl)piperazin-1-yl)-7-(8-methylnaphthalen-1-yl)-N-((S)-3-methylpiperidin-3-yl)-5,6,7,8-tetrahydro-1,7-naphthyridine-2-carboxamide] are 5.4 nM and 809 nM.
The like results for `C=CC(=O)N1CCN(c2cc(C(=O)N[C@H](C)CN)nc3c2CCN(c2cccc4ccccc24)C3)C[C@@H]1CC#N` [Compound 61, 4-((S)-4-acryloyl-3-(cyanomethyl)piperazin-1-yl)-N—((R)-1-aminopropan-2-yl)-7-(naphthalen-1-yl)-5,6,7,8-tetrahydro-1,7-naphthyridine-2-carboxamide] were, in that order, 13 nM and 1240 nM.
With `C=CC(=O)N1CCN(c2cc(C(=O)NC[C@H]3CC(F)(F)CN3)nc3c2CCN(c2cccc4cccc(C)c24)C3)C[C@@H]1CC#N` [Compound 81, 4-((S)-4-acryloyl-3-(cyanomethyl)piperazin-1-yl)-N-(((R)-4,4-difluoropyrrolidin-2-yl)methyl)-7-(8-methylnaphthalen-1-yl)-5,6,7,8-tetrahydro-1,7-naphthyridine-2-carboxamide], the half-maximal inhibitory concentration (IC50) turned out to be 29 nM in test [1] and 2970 nM in the test on NCI-H358 cells (Homo sapiens, NCI-H358, 2 h).
The like results for `C=CC(=O)N1CCN(c2cc(C(=O)NC[C@@H]3CC(F)(F)CN3)nc3c2CCN(c2cccc4cccc(C)c24)C3)C[C@@H]1CC#N` [Compound 80, 4-((S)-4-acryloyl-3-(cyanomethyl)piperazin-1-yl)-N-(((S)-4,4-difluoropyrrolidin-2-yl)methyl)-7-(8-methylnaphthalen-1-yl)-5,6,7,8-tetrahydro-1,7-naphthyridine-2-carboxamide] were, in that order, 91 nM and 6360 nM.
